# Assay results: patent publication US9573887B2, “Naphthalene derivative” (Daito Chemix Corporation, priority 2010, dated 2017)
# Where a name gives a salt, the structure may show the parent alone.
# Target: T1, Mouse VCP (Mus musculus, UniProt Q01853)
# T1 construct: histidine tag (N); made in house; host or cells: Sf-9 insect cells (baculovirus vector pVL1392)
# Assay: ATPase activity of purified His-tagged VCP, [γ-32P]ATP, liberated phosphate by liquid scintillation
# Assay type: biochemical
# Conditions: compounds of Comparative Examples; determined in the same manner as the Examples
# Method: In one aspect, the effect of VCP regulators for regulating ATPase activity is determined, for example by the following exemplary assay. Mouse VCP cDNA (the amino acid sequence is completely identical among mouse, rat and human) is added with a DNA sequence corresponding to a histidine tag at the amino-terminal, subcloned into a baculovirus vector pVL1392 (BD Bioscience), and expressed in Sf-9 insect cells. The protein is purified with a nickel column. After the purification the concentration of the protein is adjusted to 0.25-0.5 μg/ml and the protein is stored in a solution containing 50 mM TrisCl pH 8.0, 5 mM EDTA, 10% glycerol, and 15 mM DTT at 4° C. 500 ng of the purified VCP is mixed with 100 μM [γ-^32P]ATP (18.5 GBq/mmol) and the test substance in 20 μL of ATPase buffer (20 mM HEPES (pH7.4), 50 mM KCl, 5 mM MgCl2, 15 mM DTT), and incubated at 37° C. for 10 minutes. The enzyme reaction is stopped with addition of 200 μL of an ice-cold solution containing 7% TCA and 1 mM K2HPO4. 50μ of a solution containing 3.75% ammonium molybdate and 0.02M tungstate silicic/3 N H2SO4 is added, followed by 300 μL of n-butylacetic acid, and then the liberated phosphate is extracted into the organic layer. The reaction tube is centrifuged for 5 minutes at 20,000 g to separate the aqueous layer and the organic layer, 200 μL of the organic layer is taken, and the beta ray radiated from the liberated phosphate is quantified with liquid scintillation counter. By measuring the ATPase activity in the presence of the test substance at various concentrations, ATPase inhibitory activity of the test substance is measured.
# Mouse VCP cDNA was added with a DNA sequence corresponding to histidine tag at the amino-terminal, subcloned into a baculovirus vector pVL1392 (BD Bioscience), and expressed in Sf-9 insect cells. The protein was purified with a nickel column (GE Healthcare). The concentration of the protein was adjusted to 0.25-0.5 μg/ml and the protein was stored in a solution containing 50 mM TrisCl pH 8.0, 5 mM EDTA, 10% glycerol, and 15 mM DTT.
# The ATPase activity was determined as follows. 500 ng of the purified VCP was mixed with 100 μM [γ-32P]ATP (18.5 GBq/mmol) and the test substance in 20 μL of ATPase buffer (20 mM HEPES (pH7.4), 50 mM KCl, 5 mM MgCl2, 15 mM DTT), and incubated at 37° C. for 10 minutes.
# The enzyme reaction was stopped with addition of 200 μL of an ice-cold solution containing 7% TCA and 1 mM K2HPO4. 50μ of a solution containing 3.75% ammonium molybdate and 0.02M tungstate silicic/3 NH2SO4 was added, followed by 300 μL of n-butylacetic acid, and then the liberated phosphate was extracted into the organic layer. The reaction tube was centrifuged for 5 minutes at 20,000 g to separate the aqueous layer and the organic layer, 200 μL of the organic layer was taken, and the beta ray radiated from the liberated phosphate was quantified with liquid scintillation counter.
# By measuring the ATPase activity in the presence of the test substance at various concentrations, ATPase inhibitory activity of the test substance was measured. IC50 of the each test substance was calculated by applying the measured values to the equation below using GraphPad Prism (GraphPad Software).
# T1 sequence (Q01853 whole entry): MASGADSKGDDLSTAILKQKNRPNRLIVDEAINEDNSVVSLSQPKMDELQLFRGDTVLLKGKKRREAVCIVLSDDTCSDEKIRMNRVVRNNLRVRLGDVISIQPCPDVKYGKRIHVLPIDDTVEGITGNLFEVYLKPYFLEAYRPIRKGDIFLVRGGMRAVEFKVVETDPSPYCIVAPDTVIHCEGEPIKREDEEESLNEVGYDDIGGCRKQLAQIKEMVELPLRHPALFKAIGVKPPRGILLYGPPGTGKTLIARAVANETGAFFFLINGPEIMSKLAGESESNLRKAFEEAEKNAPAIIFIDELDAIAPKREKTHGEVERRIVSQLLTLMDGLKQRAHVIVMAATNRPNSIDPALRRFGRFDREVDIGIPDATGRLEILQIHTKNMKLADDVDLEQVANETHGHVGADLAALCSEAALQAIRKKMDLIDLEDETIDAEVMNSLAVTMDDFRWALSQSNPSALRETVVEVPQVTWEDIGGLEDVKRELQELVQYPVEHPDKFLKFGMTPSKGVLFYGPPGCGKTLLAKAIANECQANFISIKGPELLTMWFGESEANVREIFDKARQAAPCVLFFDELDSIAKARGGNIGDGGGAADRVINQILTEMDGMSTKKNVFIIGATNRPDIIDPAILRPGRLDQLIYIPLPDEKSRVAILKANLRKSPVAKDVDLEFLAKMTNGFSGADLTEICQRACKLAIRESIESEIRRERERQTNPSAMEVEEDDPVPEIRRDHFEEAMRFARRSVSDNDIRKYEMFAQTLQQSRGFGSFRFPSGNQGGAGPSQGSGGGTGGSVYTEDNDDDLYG
row,Compound,IC50
1,"N#Cc1cc(/N=N/c2ccc(-c3ccccc3)nc2)c(N)c2ccccc12 [Example 12, sodium salt]",> 10000 nM

# Same assay, conditions: compounds of Examples; ATPase inhibitory activity; 500 ng VCP, 100 μM ATP, 37° C., 10 minutes
row,Compound,IC50
1,"N#Cc1ccc(-c2ccc(/N=N/c3cc(S(=O)(=O)O)c4ccccc4c3N)cn2)cc1 [Example 45, 4-amino-3-[6-(4-cyanophenyl)pyridine-3-ylazo]naphthalene-1-sulfonic acid sodium salt]",524 nM
2,"Cc1cc(F)ccc1-c1ccc(/N=N/c2cc(S(=O)(=O)O)c3ccccc3c2N)cc1F [Example 144, 4-amino-3-(2,4′-difluoro-2′-methyl-diphenyl-4-ylazo)naphthalene-1-sulfonic acid sodium salt]",199 nM
3,"COCCOc1ccc(/N=N/c2cc(S(=O)(=O)O)c3ccccc3c2N)cn1 [Example 6, 4-amino-3-[6-(2-methoxyethoxy)pyridine-3-ylazo]naphthalene-1-sulfonic acid sodium salt]",518 nM
4,"CC(C)Oc1ccc(-c2ccc(/N=N/c3cc(S(=O)(=O)O)c4ccccc4c3N)cn2)cc1 [Example 28, 4-amino-3-[6-(4-isopropoxyphenyl)pyridine-3-ylazo]naphthalene-1-sulfonic acid sodium salt]",416 nM
5,"Cc1ccc2cccc(-c3ccc(/N=N/c4cc(S(=O)(=O)O)c5ccccc5c4N)cn3)c2n1 [Example 84, 4-amino-3-[6-(2-methylquinoline-8-yl)pyridine-3-ylazo]naphthalene-1-sulfonic acid sodium salt]",567 nM
6,"Nc1c(/N=N/c2ccc(-c3cccc4c3sc3ccccc34)nc2)cc(S(=O)(=O)O)c2ccccc12 [Example 43, 4-amino-3-(6-dibenzothiophene-4-ylpyridine-3-ylazo)naphthalene-1-sulfonic acid potassium salt]",1040 nM
7,"COC(=O)CCC(=O)c1ccc(-c2ccc(/N=N/c3cc(S(=O)(=O)O)c4ccccc4c3N)cn2)cc1 [Example 40, methyl 4-{4-[5-(1-amino-4-sulfonaphthalene-2-ylazo)pyridine-2-yl]phenyl}-4-oxobutyrate sodium salt]",328 nM
8,"Cc1cc(F)ccc1-c1ccc(/N=N/c2cc(S(=O)(=O)O)c3ccccc3c2N)cn1 [Example 49, 4-amino-3-[6-(4-fluoro-2-methylphenyl)pyridine-3-ylazo]naphthalene-1-sulfonic acid sodium salt]",330 nM
9,"CCOc1c(C=O)cc(C)cc1-c1ccc(/N=N/c2cc(S(=O)(=O)O)c3ccccc3c2N)cn1 [Example 149, 4-amino-3-[6-(2-ethoxy-3-formyl-5-methylphenyl)pyridine-3-ylazo]naphthalene-1-sulfonic acid sodium salt]",182 nM
10,"Cc1cccc(-c2ccc(/N=N/c3cc(S(=O)(=O)O)c4ccccc4c3N)cn2)c1C [Example 33, 4-amino-3-[6-(2,3-dimethylphenyl)pyridine-3-ylazo]naphthalene-1-sulfonic acid sodium salt]",301 nM
11,"N#Cc1cc(Cl)ccc1/N=N/c1cc(S(=O)(=O)O)c2ccccc2c1N [Example 118, 4-amino-3-(4-chloro-2-cyanophenylazo)naphthalene-1-sulfonic acid sodium salt]",105 nM
12,"Nc1c(/N=N/c2ccc(-c3ccsc3)nc2)cc(S(=O)(=O)O)c2ccccc12 [Example 18, 4-amino-3-(6-thiophene-3-ylpyridine-3-ylazo)naphthalene-1-sulfonic acid sodium salt]",163 nM
13,"Nc1c(/N=N/c2ccc(-c3cccnc3)nc2)cc(S(=O)(=O)O)c2ccccc12 [Example 52, 4-amino-3-([2,3′]bipyridinyl-5-ylazo)naphthalene-1-sulfonic acid sodium salt]",1390 nM
14,"Nc1c(/N=N/c2ccc(-c3cccnc3)cc2)cc(S(=O)(=O)O)c2ccccc12 [Example 123, 4-amino-3-(4-pyridine-3-ylphenylazo)-1-naphthalenesulfonic acid sodium salt]",274 nM
15,"Nc1c(/N=N/c2ccc(Cl)c(Cl)c2)cc(S(=O)(=O)O)c2ccccc12 [Example 112, 4-amino-3-(3,4-dichlorophenylazo)naphthalene-1-sulfonic acid sodium salt]",526 nM
16,"Cc1ccc(-c2ccc(Cl)cc2)c(-c2ccc(/N=N/c3cc(S(=O)(=O)O)c4ccccc4c3N)cn2)c1 [Example 72, 4-amino-3-[6-(4′-chloro-4-methylbiphenyl-2-yl)pyridine-3-ylazo]naphthalene-1-sulfonic acid sodium salt]",796 nM
17,"Nc1c(/N=N/c2ccc(-c3cccc(C(F)(F)F)c3)nc2)cc(S(=O)(=O)O)c2ccccc12 [Example 37, 4-amino-3-[6-(3-trifluoromethylphenyl)pyridine-3-ylazo]naphthalene-1-sulfonic acid sodium salt]",726 nM
18,"COc1ccc(-c2ccc(/N=N/c3cc(S(=O)(=O)O)c4ccccc4c3N)cn2)cc1 [Example 26, 4-amino-3-[6-(4-methoxyphenyl)pyridine-3-ylazo]naphthalene-1-sulfonic acid sodium salt]",304 nM
19,"Nc1c(/N=N/c2ccc(-c3ccc(C(=O)c4ccccc4)cc3)nc2)cc(S(=O)(=O)O)c2ccccc12 [Example 47, 4-amino-3-[6-(4-benzoylphenyl)pyridine-3-ylazo]naphthalene-1-sulfonic acid sodium salt]",589 nM
20,"Nc1c(/N=N/c2c(Cl)cc(Cl)cc2Cl)cc(S(=O)(=O)O)c2ccccc12 [Example 115, 4-amino-3-(2,4,6-trichlorophenylazo)naphthalene-1-sulfonic acid sodium salt]",297 nM
21,"Nc1c(/N=N/c2ccc(OCc3ccncc3)cc2)cc(S(=O)(=O)O)c2ccccc12 [Example 132, 4-amino-3-[4-(pyridine-4-ylmethoxy)phenylazo]naphthalene-1-sulfonic acid sodium salt]",135 nM
22,"Nc1c(/N=N/c2ccc(-c3ccc(Cl)cc3Cl)nc2)cc(S(=O)(=O)O)c2ccccc12 [Example 19, 4-amino-3-[6-(2,4-dichlorophenyl)pyridine-3-ylazo]naphthalene-1-sulfonic acid sodium salt]",178 nM
23,"CCCOc1cc(F)ccc1-c1ccc(/N=N/c2cc(S(=O)(=O)O)c3ccccc3c2N)cn1 [Example 57, 4-amino-3-[6-(4-fluoro-2-propoxyphenyl)pyridine-3-ylazo]naphthalene-1-sulfonic acid sodium salt]",1390 nM
24,"CSc1ccccc1/N=N/c1cc(S(=O)(=O)O)c2ccccc2c1N [Example 133, 4-amino-3-(2-methylsulfanylphenylazo)naphthalene-1-sulfonic acid sodium salt]",518 nM
25,"Cc1ccc(-c2ccc(/N=N/c3cc(S(=O)(=O)O)c4ccccc4c3N)cn2)cc1 [Example 8, 4-amino-3-(6-p-tolylpyridine-3-ylazo)naphthalene-1-sulfonic acid sodium salt]",430 nM
26,"CCCCCCOc1ccccc1-c1ccc(/N=N/c2cc(S(=O)(=O)O)c3ccccc3c2N)cn1 [Example 61, 4-amino-3-[6-(2-hexyloxyphenyl)pyridine-3-ylazo]naphthalene-1-sulfonic acid sodium salt]",843 nM
27,"Nc1c(/N=N/c2ccc(-c3ccccc3C(F)(F)F)nc2)cc(S(=O)(=O)O)c2ccccc12 [Example 20, 4-amino-3-[6-(2-trifluoromethylphenyl)pyridine-3-ylazo]naphthalene-1-sulfonic acid sodium salt]",170 nM
